Test results reported in patent publication US12103943B2, “Development of novel clofarabine analogs for cancer therapy” (Southern Research Institute, priority 2021, dated 2024).
“Also recorded” adds a separate entry of the source. Where two headings read alike, the source gives them in different places.

Tests used:
BT549 = assay: Cell viability after 72-hour incubation, CellTiter-Glo 2.0; assay type: cell-based; settings: Homo sapiens, read-out: IC50 (μM) BT549
Method: (§1) Select tumor lines representative of triple negative breast cancer (MDA-MB-231 and BT549) were identified for testing of efficacy of compounds. Assessment of compound efficacy was determined by a test of cell viability after 72-hour incubation with compound using CellTiter-Glo 2.0 (Promega). […] Selectivity index is defined as the ratio of the calculated IC50 in normal epithelial lines to the calculated IC50 in a cancerous cell line. For CellTiter-Glo cells are plated in a 96-well, opaque, flat-bottomed black plate. Cells are seeded at 5,000 cells per well and allowed to incubate for 6 hours to allow for attachment. Cells are then dosed in a 12-point serial dilution spanning a range of 50 μM to 25 nM. Clofarabine is used as a positive control for all cell lines, and each plate contains media only, and DMSO controls as negatives for each compound tested. Final volume for both cells and compound should be 100 uL. After 72-hour exposure to compound, plates are removed from the incubator and allowed to equilibrate to room temperature for 30 minutes. An equal volume of CellTiter-Glo 2.0 reagent is added to media present in well (100 uL). Plates are then placed onto an orbital shaker and allow to incubate while shaking for 10 to 15 minutes. Raw luminescence readings are obtained. Log transformations of the background subtracted data are analyzed using a 4PL-fit model, and IC50 values are calculated based on the sigmoidal fit of the non-linear regression model.

MDA-MB-231 = assay: as above; assay type: cell-based; settings: Homo sapiens, read-out: IC50 (μM) MDA-MB-231
Method: as §1

[1] = Basic dose escalation test for tolerance of drug concentration; assay type: in vivo; settings: dose escalation 25, 40, 55 mg/kg, Q1D×5 with 2-day washout, B6C3F1/N female mice, FIG. 2
Method: Briefly, a cohort of B6C3F1/N female mice were split into three dosing arms: Control (N=2), Clofarabine (N=3), and compound 5 (N=3). The dosing schedule was set based on previous and historical dosing with nucleosides, Q1D×5 with a 2-day washout period before dose escalation. The selected dose concentrations were 25 mg/kg, 40 mg/kg, and 55 mg/kg. Blood was collected weekly by submandibular bleed for ALT and AST measurements, and at necropsy major organs were examined for gross toxicity.

MDA-MB-231 cells = assay: In vivo efficacy in a solid tumor, triple negative breast cancer model; settings: 25 mg/kg intraperitoneal for 2 weeks, s.c. MDA-MB-231 tumors in athymic nude mice, FIG. 1
Method: Athymic nude mice (Crl:Nu(NCr)-Fox^1nu; Charles River) were injected s.c. in the right flank with 100 uL MDA-MB-231 cells in 1:1 RPMI 1640 and Cultrex BME Type 3 (1×10^6 cells/mouse). Tumors were allowed to grow until 500 mm^3 (Tumor Volume= […]×Length×Width^2), at which point mice were dosed […] for 2 weeks by intraperitoneal injection with either vehicle (N-Methyl-2-Pyrrolidone (NMP), Polyethylene glycol 400 (PEG400), and saline at a ratio of 1:2:2 v/v/v), 25 mg/kg of Clofarabine, or 25 mg/kg of compound 5. Tumor volumes were measured twice weekly, and bodyweight was measured daily during the dosing period. This was a pilot test to determine anti-tumor growth activity, so regrowth was not measured and the study was terminated two days after the final dose.

[2] = BT-549, BT549 triple negative breast cancer cells, 72-hour exposure, CellTiter-Glo 2.0, 50 μM to 25 nM
[3] = MDA-MB-231 triple negative breast cancer cells, 72-hour exposure, CellTiter-Glo 2.0, 50 μM to 25 nM

| Structure (SMILES) | IC50 (BT549; [2]) [µM] | IC50 (MDA-MB-231; [3]) [µM] | other results |
| --- | --- | --- | --- |
| COC(=O)[C@H](C)NP(=O)(OC[C@H]1O[C@@H](n2cnc3c(N)nc(C(F)(F)F)nc32)C(F)C1O)Oc1ccccc1 (mixture of isomers) [Compound 12, methyl (2S)-2-[[phenoxy-[[rac-(2R,3R,4S,5R)-5-[6-amino-2-(trifluoromethyl)purin-9-yl]-4-fluoro-3-hydroxy-tetrahydrofuran-2-yl]methoxy]phosphoryl]amino]propanoate] | – | – | IC50 (BT549; BT-549, 72 h): 13.1 µM; IC50 (MDA-MB-231; MDA-MB-231, 72 h): 13.7 µM |
| Nc1nc(Cl)nc2c1ncn2[C@@H]1O[C@H](CO)[C@@H](O)[C@@H]1F [Clofarabine, 2-chloro-2′-fluoro-2′-deoxy-9-β-D-arabinofuranosyladenine] | – | – | tolerance of drug concentration (toxicity, survival) [1]: Toxicity was seen immediately following the 55 mg/kg dose |
| CC(C)Nc1nc(C(F)(F)F)nc2c1ncn2[C@@H]1O[C@H](CO)[C@@H](O)[C@@H]1F [Compound 7a, (2R,3R,4S,5R)-4-fluoro-2-(hydroxymethyl)-5-(6-(isopropylamino)-2-(trifluoromethyl)purin-9-yl)tetrahydrofuran-3-ol] | – | 20.5 | – |
| CCC(CC)Nc1nc(C(F)(F)F)nc2c1ncn2[C@@H]1O[C@H](CO)[C@@H](O)[C@@H]1F [Compound 7b, (2R,3R,4S,5R)-5-[6-(1-ethylpropylamino)-2-(trifluoromethyl)purin-9-yl]-4-fluoro-2-(hydroxymethyl)tetrahydrofuran-3-ol] | > 50 | ≥ 67 | – |
| CC1(Nc2nc(C(F)(F)F)nc3c2ncn3[C@@H]2O[C@H](CO)[C@@H](O)[C@@H]2F)CCC1 [Compound 7f, (2R,3R,4S,5R)-4-fluoro-2-(hydroxymethyl)-5-[6-[(1-methylcyclobutyl)amino]-2-(trifluoromethyl)purin-9-yl]tetrahydrofuran-3-ol] | 13.5 | > 50 | – |
| CCCCCCCCCCCC(=O)Nc1nc(C(F)(F)F)nc2c1ncn2[C@@H]1O[C@H](CO)[C@@H](O)[C@@H]1F [Compound 10, N-[9-[(2R,3S,4R,5R)-3-fluoro-4-hydroxy-5-(hydroxymethyl)tetrahydrofuran-2-yl]-2-(trifluoromethyl)purin-6-yl]dodecanamide] | – | 3.19 | – |
| CC(C)C(=O)OC[C@H]1O[C@@H](n2cnc3c(N)nc(C(F)(F)F)nc32)[C@@H](F)[C@@H]1O [Compound 15, [(2R,3R,4S,5R)-5-[6-amino-2-(trifluoromethyl)purin-9-yl]-4-fluoro-3-hydroxy-tetrahydrofuran-2-yl]methyl 2-methylpropanoate] | > 50 | 7.12 | – |
| CC[C@@H](C)[C@@H](N)C(=O)OC[C@H]1O[C@@H](n2cnc3c(N)nc(C(F)(F)F)nc32)[C@@H](F)[C@@H]1O [Compound 18, [(2R,3R,4S,5R)-5-[6-amino-2-(trifluoromethyl)purin-9-yl]-4-fluoro-3-hydroxy-tetrahydrofuran-2-yl]methyl (2R,3R)-2-amino-3-methyl-pentanoate] | > 50 | 11.4 | – |

The next lines start with results.

| IC50 (BT549; [2]) [µM] | IC50 (MDA-MB-231; [3]) [µM] | Structure (SMILES) | other results |
| --- | --- | --- | --- |
| 0.018 | 4.16 | Nc1nc(C(F)(F)F)nc2c1ncn2[C@@H]1O[C@H](CO)[C@@H](O)[C@@H]1F [Compound 5, (2R,3R,4S,5R)-5-[6-amino-2-(trifluoromethyl)purin-9-yl]-4-fluoro-2-(hydroxymethyl)tetrahydrofuran-3-ol] | tumor volume / anti-tumor growth activity (MDA-MB-231 cells): effectively reduces tumor volume; also recorded: anti-growth efficacy |
| – | 2.58 | OC[C@H]1O[C@@H](n2cnc3c(NC4CC4)nc(C(F)(F)F)nc32)[C@@H](F)[C@@H]1O [Compound 7c, (2R,3R,4S,5R)-5-[6-(cyclopropylamino)-2-(trifluoromethyl)purin-9-yl]-4-fluoro-2-(hydroxymethyl)tetrahydrofuran-3-ol] | – |
| 15.1 | 20.5 | CC(Nc1nc(C(F)(F)F)nc2c1ncn2[C@@H]1O[C@H](CO)[C@@H](O)[C@@H]1F)C1CC1 (stereo partly drawn) [Compound 7d, (2R,3R,4S,5R)-5-[6-(1-cyclopropylethylamino)-2-(trifluoromethyl)purin-9-yl]-4-fluoro-2-(hydroxymethyl)tetrahydrofuran-3-ol] | – |
| 13.8 | – | OC[C@H]1O[C@@H](n2cnc3c(NC4CCC4)nc(C(F)(F)F)nc32)[C@@H](F)[C@@H]1O [Compound 7e, (2R,3R,4S,5R)-5-[6-(cyclobutylamino)-2-(trifluoromethyl)purin-9-yl]-4-fluoro-2-(hydroxymethyl)tetrahydrofuran-3-ol] | – |
| 5.89 | – | OC[C@H]1O[C@@H](n2cnc3c(NC4CCCC4)nc(C(F)(F)F)nc32)[C@@H](F)[C@@H]1O [Compound 7g, (2R,3R,4S,5R)-5-[6-(cyclopentylamino)-2-(trifluoromethyl)purin-9-yl]-4-fluoro-2-(hydroxymethyl)tetrahydrofuran-3-ol] | – |
